Values quoted from earlier work as cited in patent US20220378710A1, “Therapeutic Gas Microfoam for Skin Recovery” (Truly Oxygen, Inc., priority 2018, published 2022).

Details: topical co-administration of lipids, mammals

C=C(C)[C@@H]1CCC(C)=C[C@H]1c1c(O)cc(CCCCC)cc1O [CBD, cannabidiol]
increase in absorption and/or bioavailability: ~3 fold

CCCCCc1cc(O)c2c(c1)OC(C)(C)[C@@H]1CCC(C)=C[C@@H]21 [THC, Δ^9-tetrahydrocannabinol]
increase in absorption and/or bioavailability: more than 2.5 fold
